Data: US7928060B2, “Amylin family polypeptide-6 (AFP-6) analogs and methods of making and using them” (Amylin Pharmaceuticals, Inc., priority 2004, dated 2011)
Where two headings read alike, the source gives them in different places.

Tests used:
adrenomedullin receptor [1] = conditions: bovine studies; cited from earlier work
adrenomedullin receptor [2] = target: adrenomedullin receptor (Homo sapiens, UniProt O60895+Q16602); assay: cAMP production in HUVECs (AlphaScreen); type: cell-based; set-up: tested for bioactivity in HUVECs that contain the adrenomedullin receptor; endogenous in cells; host or cells: HUVEC
calcitonin receptor [3] = assay: cAMP production in CHO cells (AlphaScreen); type: cell-based; conditions: for EC50: CHO, 30,000 cells/well
CGRP receptors = target: T1, CGRP receptors (Homo sapiens, UniProt O60894+Q16602); assay: CGRP radioligand binding assay (125I-hCGRP, SK-N-MC cell membranes); conditions: FIG. 11
T1 construct: membranes prepared from SK-N-MC cells, known to express CGRP receptors; endogenous in cells; host or cells: SK-N-MC cell membranes

calcitonin receptor [4] = target: T2, calcitonin receptor (Homo sapiens, UniProt P30988); assay: cAMP production in T47D cells (AlphaScreen)
T2 sequence (P30988 25-474): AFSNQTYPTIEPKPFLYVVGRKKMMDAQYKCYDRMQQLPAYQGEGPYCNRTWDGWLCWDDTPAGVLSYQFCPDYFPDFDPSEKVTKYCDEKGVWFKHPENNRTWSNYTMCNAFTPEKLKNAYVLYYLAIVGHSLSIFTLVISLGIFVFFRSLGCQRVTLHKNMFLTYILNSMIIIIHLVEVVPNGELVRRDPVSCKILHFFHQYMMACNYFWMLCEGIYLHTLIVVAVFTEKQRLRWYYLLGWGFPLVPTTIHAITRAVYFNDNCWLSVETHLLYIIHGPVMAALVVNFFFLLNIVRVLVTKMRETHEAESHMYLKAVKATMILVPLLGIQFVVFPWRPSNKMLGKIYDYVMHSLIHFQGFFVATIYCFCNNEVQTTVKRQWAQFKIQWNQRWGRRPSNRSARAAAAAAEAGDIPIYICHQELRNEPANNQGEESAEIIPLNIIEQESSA
Excerpt: Data from three exemplary independent alpha screen assays are summarized with EC50 values calculated in PRISM.

NIH/Swiss mice = assay: acute food intake assay in overnight-fasted mice, IP injection; type: in vivo, mouse
Outline: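 Overnight-fasted lean group-housed NIH/Swiss mice given IP doses 0.3–300 nmol/kg (n=12/group) at t=0, with food given immediately.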

amylin receptors = target: T3, amylin receptors (Rattus norvegicus, UniProt P32214); assay: amylin radioligand binding assay (125I-rat amylin, nucleus accumbens membranes); conditions: FIG. 10
T3 construct: This basal forebrain tissue, containing the nucleus accumbens and surrounding regions, was weighed and homogenized; from tissue; host or cells: rat basal forebrain (nucleus accumbens) membranes, male Sprague-Dawley rats
T3 sequence (P32214 25-516): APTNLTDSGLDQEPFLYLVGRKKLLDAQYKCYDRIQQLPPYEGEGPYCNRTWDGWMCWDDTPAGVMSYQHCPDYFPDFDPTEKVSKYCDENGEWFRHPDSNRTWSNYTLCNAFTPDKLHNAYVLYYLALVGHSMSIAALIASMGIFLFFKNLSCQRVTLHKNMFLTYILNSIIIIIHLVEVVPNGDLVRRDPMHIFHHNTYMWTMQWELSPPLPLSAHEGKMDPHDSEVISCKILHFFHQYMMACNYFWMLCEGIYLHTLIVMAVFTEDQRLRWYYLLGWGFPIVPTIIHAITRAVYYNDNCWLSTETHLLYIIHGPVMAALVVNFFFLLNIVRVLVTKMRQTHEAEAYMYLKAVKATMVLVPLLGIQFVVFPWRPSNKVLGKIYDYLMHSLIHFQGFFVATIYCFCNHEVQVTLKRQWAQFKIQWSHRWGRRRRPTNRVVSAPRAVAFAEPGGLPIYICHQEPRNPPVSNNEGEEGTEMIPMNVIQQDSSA
Outline: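 Membranes from male Sprague-Dawley rat brain region rostral to hypothalamus, washed and resuspended in 20 mM HEPES with 0.2 mM PMSF. Incubation 60 min at 2 C, then filtration with cold PBS washes.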

[5] = system: Harlan Sprague Dawley rats; assay: gastric emptying rate in conscious rats (3H-glucose gavage); type: in vivo, rat; conditions: subcutaneous
Method: Male Harlan Sprague Dawley® rats, 237-317 g, were housed with a 12:12 hour light:dark cycle. The experiment was carried out during the light cycle. At time=0 min, test peptide (amylin or AFP-6) at 6.3, 20, 63, 200, 632, and 1122 μg/kg or vehicle was injected (subcutaneous) into conscious rats (n=6/group). At t=5 min, a solution of 1 mL sterile water containing 5 μCi D-[3-^3H] glucose was gavaged by oropharyngeal tube to conscious rats. Blood samples were collected 30 min after gavage and assayed for counts per minute (CPM) in plasma. 20% benzocaine liquid topical anesthetic was used to eliminate pain during sampling. (Gedulin et al. (1995) Gastroenterology 108:A604). The appearance of counts in plasma is a reflection of the rate of gastric emptying. Significance of difference (p<0.05) was determined by ANOVA.

adrenomedullin receptor (Homo sapiens, UniProt O60895+Q16602), sequence (Q16602 23-461): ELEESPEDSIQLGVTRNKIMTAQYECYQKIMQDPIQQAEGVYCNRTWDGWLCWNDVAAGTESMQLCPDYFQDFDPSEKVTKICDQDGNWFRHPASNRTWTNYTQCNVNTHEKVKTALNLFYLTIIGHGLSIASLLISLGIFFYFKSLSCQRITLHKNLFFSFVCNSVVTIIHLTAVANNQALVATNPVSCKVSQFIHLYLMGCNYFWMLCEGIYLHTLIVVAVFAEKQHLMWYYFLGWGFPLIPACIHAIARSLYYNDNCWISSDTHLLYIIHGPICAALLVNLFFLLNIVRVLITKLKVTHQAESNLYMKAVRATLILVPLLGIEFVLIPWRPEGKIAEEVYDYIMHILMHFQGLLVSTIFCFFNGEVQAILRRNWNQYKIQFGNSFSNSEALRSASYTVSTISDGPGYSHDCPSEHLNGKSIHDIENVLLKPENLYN
adrenomedullin receptor (Homo sapiens, UniProt O60895+Q16602), sequence (O60895 43-175): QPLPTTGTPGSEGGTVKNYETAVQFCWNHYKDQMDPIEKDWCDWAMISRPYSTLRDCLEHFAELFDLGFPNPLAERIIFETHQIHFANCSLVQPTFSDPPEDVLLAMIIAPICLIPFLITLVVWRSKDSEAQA
T1 sequence (Q16602 23-461): as the sequence (Q16602 23-461) above
T1 sequence (O60894 27-148): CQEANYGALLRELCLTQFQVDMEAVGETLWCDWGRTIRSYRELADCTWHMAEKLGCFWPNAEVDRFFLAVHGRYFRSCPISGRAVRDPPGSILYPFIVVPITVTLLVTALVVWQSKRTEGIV

CSCC[C@H](NC(=O)[C@H](CC(C)C)NC(=O)[C@H](CCC(N)=O)NC(=O)[C@H](Cc1c[nH]c2ccccc12)NC(=O)[C@H](CC(C)C)NC(=O)[C@H](CCCNC(=N)N)NC(=O)[C@H](Cc1c[nH]cn1)NC(=O)[C@H](CO)NC(=O)[C@H](CC(C)C)NC(=O)[C@H](CC(N)=O)NC(=O)[C@H](CCC(N)=O)NC(=O)[C@@H](NC(=O)[C@H](CCC(N)=O)NC(=O)[C@@H]1CSSC[C@H](NC(=O)CNC(=O)[C@@H](NC(=O)[C@H](CCCNC(=N)N)NC(=O)[C@H](CC(C)C)NC(=O)[C@H](CC(C)C)NC(=O)[C@H](CCC(N)=O)NC(=O)[C@H](C)NC(=O)[C@H](CCC(N)=O)NC(=O)[C@@H](N)[C@@H](C)O)C(C)C)C(=O)N[C@@H](C(C)C)C(=O)N[C@@H](CC(C)C)C(=O)NCC(=O)N[C@@H]([C@@H](C)O)C(=O)N1)C(C)C)C(=O)NCC(=O)N1CCC[C@H]1C(=O)N[C@@H](C)C(=O)NCC(=O)N[C@@H](CCCNC(=N)N)C(=O)N[C@@H](CCC(N)=O)C(=O)N[C@@H](CC(=O)O)C(=O)N[C@@H](CO)C(=O)N[C@@H](C)C(=O)N1CCC[C@H]1C(=O)N[C@H](C(=O)N[C@@H](CC(=O)O)C(=O)N1CCC[C@H]1C(=O)N[C@@H](CO)C(=O)N[C@@H](CO)C(=O)N1CCC[C@H]1C(=O)N[C@@H](Cc1c[nH]cn1)C(=O)N[C@@H](CO)C(=O)N[C@@H](Cc1ccc(O)cc1)C(N)=O)C(C)C [SEQ ID NO: 1]
binding at the adrenomedullin receptor (adrenomedullin receptor [1]): 1 to 5 nM
increase of cAMP levels (adrenomedullin receptor [2]; HUVECs, 1 μM and 10 nM): active in increasing cAMP levels
rank order of potency in HUVECs (adrenomedullin receptor [2]; cAMP, FIG. 9): adrenomedullin >AFP-6>>CGRP alpha
EC50 (calcitonin receptor [3]; average of three experiments, read-out: Average EC50): 9.63 nM
EC50 (calcitonin receptor [3]; read-out: Experiment 1 EC50): 11.3 nM
EC50 (calcitonin receptor [3]; read-out: Experiment 2 EC50): 10.6 nM
EC50 (calcitonin receptor [3]; read-out: Experiment 3 EC50): 7 nM
rank order of potency in CHO cells (calcitonin receptor [3]; cAMP, FIG. 9): AFP-6>adrenomedullin=CGRP alpha
rank order of potency, CHO cell experiments (calcitonin receptor [3]; cAMP, panel of related peptides): calcitonin >AFP-6>amylin >hCGRP alpha>adrenomedullin
rank order, displacement of CGRP (CGRP receptors): CGRP >adrenomedullin >AFP-6 >amylin>>calcitonin
rank order of potency, T47D cells (calcitonin receptor [4]): calcitonin>amylin >AFP-6=hCGRP alpha>adrenomedullin
inhibition of food intake (NIH/Swiss mice; 1 mg/kg IP, mice): 91%
ED50, short-term food intake (NIH/Swiss mice; 60 min time point, 0.3-300 nmol/kg IP, non-linear regression): 19 nmol/kg
FI 30 min ED50 (NIH/Swiss mice; food intake, 30 min): 9 to 14 nmol/kg
FI 60 min ED50 (NIH/Swiss mice; food intake, 60 min): 14 to 19 nmol/kg
rank order of potency, displacement of bound amylin (amylin receptors): amylin >CGRP>AFP-6 >>adrenomedullin>calcitonin
ED50, inhibition of gastric emptying [5]: 49 µg/kg
